Laboratory results as given in publication doi:10.1101/423061v1, “Comparative analysis of PknB inhibitors for reactivity and toxicity” (biorxiv, 2018).

Biological target: PknB (Mycobacterium tuberculosis, UniProt P9WI81)
Test: ATP Glo kinase assay, GarA as protein substrate
Format: biochemical

Chain of PknB (P9WI81 1-331 limits assumed): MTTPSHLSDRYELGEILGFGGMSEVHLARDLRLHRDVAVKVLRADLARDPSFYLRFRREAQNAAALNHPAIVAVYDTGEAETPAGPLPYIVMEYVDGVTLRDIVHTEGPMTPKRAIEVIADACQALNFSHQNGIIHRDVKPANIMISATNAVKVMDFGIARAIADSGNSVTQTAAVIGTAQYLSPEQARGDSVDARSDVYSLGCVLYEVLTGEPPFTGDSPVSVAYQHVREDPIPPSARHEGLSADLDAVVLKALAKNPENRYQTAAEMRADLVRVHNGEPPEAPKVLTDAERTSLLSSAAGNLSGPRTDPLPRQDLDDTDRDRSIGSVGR

## COC(=O)/C=C/C(=O)c1ccc(OC)cc1 [YH-8, trans-Methyl-4-(4-methoxyphneyl)-4-oxobut-2-enoate]
  IC50: 6.6 µM
